“Also recorded” adds a separate entry of the source.
Legend:
Assay type in all cases: cell-based
RIPK1 = experiment: Western blot, total RIPK1 in HT-29 cells; conditions: 100 μM, necroptosis induced 3 hrs, normalized to b-actin
Experimental: (§1) If RMITC03 and RMITC09 are disrupting the protein-protein interactions between RIPK3 and MLKL, then the effect of such inhibition should be observed in the activation of MLKL. To test this, HT-29 cells were treated with 100 μM of each compound for 30 min before necroptosis induction. Cells were harvested after 3 hrs with RIPA buffer in order to determine amount of inhibition at each stage of the necroptotic signaling molecules. When comparing the amounts of RIPK1, RIPK3, and MLKL in DMSO treated necroptosis activated cells (T/S/Z) against non necroptosis activated cells (Non-treated samples), there is no statistically significant difference in the amounts of these proteins (FIG. 6A-B).
(§2) HT-29 cells were grown as described above and plated on a 6 well plate. After incubating overnight, cells were incubated with 100 μM of noted compounds in FIG. 3 for 30 min._Necroptosis was induced in the cells for 3 hours, as described in Necroptosis flow assay section, before harvesting with 75 μL RIPA buffer system (Santa Cruz sc-24948) containing 2 mM PMSF, 1 mM Sodium Orthovanadate, and 1% final volume of protease inhibitor. Samples were_centrifuged for 10 min at 20000×g and 4° C. […]
(§3) The secondary Anti-rabbit IgG, HRP-linked antibody (Cell Signaling Technology #7074S) was_used at a dilution of 1:1500 in PBS-T with 5% BSA. […] Data_were quantified with ImageLab™ software. […]

RIPK3 = experiment: Western blot, total RIPK3 in HT-29 cells; conditions: 100 μM, necroptosis induced 3 hrs, normalized to b-actin
Experimental: as §1, §2, §3

MLKL = experiment: Western blot, total MLKL in HT-29 cells; conditions: 100 μM, necroptosis induced 3 hrs, normalized to b-actin
Experimental: as §1, §2, §3

Phospho-RIPK1 (Ser166) = experiment: Western blot, phosphorylated RIPK1 in HT-29 cells; conditions: 100 μM, necroptosis induced 3 hrs, normalized to b-actin
Description: Autophosphorylation of RIPK1 at Ser166 facilitates RIPK1 kinase activity to induce cell_death (see, Meng, H. Y. et al. Proceedings of the National Academy of Sciences of the United States of America 115, E2001-E2009 (2018)). As such, phosphorylation at Ser166 was used to detect activation of necroptosis. […] Similarly, in the non-necroptosis activated on treated sample, there is also no phosphorylated RIPK1 signal. When comparing the DMSO sample to RMITC03 and RMITC09 treated samples, there is a large amount of activated phosphorylated RIPK1 with no difference between the DMSO control and RMITC03 and RMITC09 compounds.
as §2, §3

Phospho-RIPK3 (Ser227) = experiment: Western blot, phosphorylated RIPK3 in HT-29 cells; conditions: 100 μM, necroptosis induced 3 hrs, normalized to b-actin
Experimental: As previously reported, RIPK3 activation from necroptotic stimulus can be readily and accurately measured by phosphorylation at Ser227 (see, Chen, W. Z. et al. Journal of Biological Chemistry 288, 16247-16261 (2013)).
as §2, with “C. The supernatant was mixed with 25 μL of NuPAGE_LDS sample buffer dye 4× containing 0.1 M DTT and heated for 10 min at 90° C. SDS-PAGE_separation and membrane transfer were performed as described under the CETSA protocol.” for “C.”
as §3

Phospho-MLKL (Ser358) = experiment: Western blot, phosphorylated MLKL in HT-29 cells; conditions: 100 μM, necroptosis induced 3 hrs, normalized to b-actin
Experimental: RIPK3 is known to activate MLKL through phosphorylation at Ser358 for necroptotic cell death (see, Sun, L. M. et al. Cell 148, 213-227 (2012)). Therefore, the amount of phosphorylated MLKL at Ser358 was used to determine if any inhibition of MLKL activation occurred.
as §2, with “C. The supernatant was mixed with 25 μL of NuPAGE_LDS sample buffer dye 4× containing 0.1 M DTT and heated for 10 min at 90° C. SDS-PAGE_separation and membrane transfer were performed as described under the CETSA protocol.” for “C.”
as §3

HT-29 cells = experiment: Necroptosis flow assay (Annexin V / propidium iodide staining, flow cytometry); conditions: 100 μM compound 30 min before induction with TNF-a/Z-VAD-fmk/SM-164 for 7 hours, vs DMSO
Experimental: Necroptosis was allowed to proceed for 7 hours (hrs) before Annexin V and propidium iodide staining and flow cytometry analysis (FIG. 3). Cells staining positive for either Annexin V or propidium iodide were quantified as necroptotic cells (FIG. 1F). […] Docking results from RMITC03 and RMITC09 indicate most interactions are driven through hydrophobic interactions with a few hydrogen bonds interacting with the backbone of the protein (FIG. 1D-E).
HT-29 cells were grown in DMEM (Corning 10-013-CV) with 10% FBS (HyClone SH3091003)_and incubated at 37° C. and 5% CO2. […] Necroptosis was induced with 25 ng/mL TNF-a (Prospec CYT-223), 20_μM Z-VAD-fmk (AdooQ Bioscience A12373), and 0.1 μM SM-164 (AdooQ Bioscience A15800) for 7 hours in an incubator at 37° C. and 5% CO2. HT-29 cells were trypsinized (Corning 25-053-CI) and washed with DPBS (Corning 21-031-CV) (see, Bundscherer, A. et al. Anticancer Research 33, 3201-3204 (2013)). Cells were processed and stained with Annexin V and propidium iodide as described by manufacturer's protocol in the eBioscience™ Annexin V-FITC Apoptosis Detection Kit (Invitrogen BMS500FI-500). Flow cytometry was performed with MACSQuant® Analyzer 10 and data was processed with Flowlogic™ flow cytometry analysis software.

## CN1C(=O)C(Cc2c[nH]c3ccccc23)NC1=S (stereo not shown) [Nec-1]
RIPK1
  amount of RIPK1 compared to DMSO: no significant difference
RIPK3
  amount of RIPK3 compared to DMSO: no significant difference
MLKL
  amount of MLKL compared to DMSO: no significant difference
Phospho-RIPK1 (Ser166)
  phosphorylated RIPK1 (Ser166) signal compared to DMSO: significant decrease; also recorded: no observable phosphorylated RIPK11 signal
Phospho-RIPK3 (Ser227)
  phosphorylated RIPK3 (Ser227) compared to DMSO: did not completely inhibit activation of phosphorylated RIPK3
Phospho-MLKL (Ser358)
  phosphorylated MLKL (Ser358) compared to DMSO: significant decrease; also recorded: lowest levels of phosphorylated MLKL

## CC(C)S(=O)(=O)c1ccc2nccc(Nc3ccc4scnc4c3)c2c1 [GSK'872]
HT-29 cells
  inhibitory effect on necroptosis (cells positive for Annexin V or propidium iodide): largest inhibition of necroptosis
RIPK1
  amount of RIPK1 compared to DMSO: no significant difference
RIPK3
  amount of RIPK3 compared to DMSO: no significant difference
MLKL
  amount of MLKL compared to DMSO: no significant difference
Phospho-RIPK1 (Ser166)
  phosphorylated RIPK1 (Ser166) signal compared to DMSO: significant decrease; also recorded: no observable phosphorylated RIPK11 signal
Phospho-RIPK3 (Ser227)
  phosphorylated RIPK3 (Ser227) compared to DMSO: significant decrease; also recorded: Inhibition of activated phosphorylated RIPK3 at Ser227
Phospho-MLKL (Ser358)
  phosphorylated MLKL (Ser358) compared to DMSO: significant decrease; also recorded: lowest levels of phosphorylated MLKL

Reference: patent publication US20230099837A1, “COMPOSITIONS AND METHODS FOR TREATING NEURODEGENERATIVE DISORDERS WITH RIPK1/RIPK3 INHIBITORS” (Arizona Board of Regents on Behalf of the University of …, priority 2020, published 2023)
